# Measured values as given in US20140179795A1, “Agent for Stabilizing Acetaminophen” (priority 2010, published 2014).
# How the values were obtained:
# [1] = Stability under high-temperature and high-pressure conditions (121° C., 1 hour): color tone, precipitation, related substances by HPLC; type: physicochemical; set-up: key to Color tone: +++: deep brown; ++: slightly deep brown; +: light brown; ±: very little discoloration; −: no discoloration; key to Precipitation: +: visible precipitates; −: no precipitates; conditions: 1 w/v % acetaminophen, 5 w/v % xylitol, pH 5, 1-hour treatment; for Total amount of related substances (%): HPLC peak area 225 nm
# Description: Aqueous compositions containing glycine at the concentrations shown in Table 1 below, 1 w/v % acetaminophen, 5 w/v % xylitol and phosphoric acid (q.s.) and having the pH of 5 were heat-treated at 121° C. for 1 hour, and subsequently visually observed in terms of the color tone (the degree of discoloration) and the presence of precipitates.
# In addition, the concentration of acetaminophen-related substances in each aqueous composition was determined by HPLC. The HPLC conditions were as follows.
# (§1) The analysis was performed using liquid chromatography as described in the purity test of acetaminophen (related substances) prescribed in the manual of the Japanese pharmacopoeia, 15th edition. That is, each solution was subjected to HPLC using an octadecyl silica gel column and a mobile phase prepared by mixing methanol and a potassium dihydrogen phosphate solution, the peak areas at the detection wavelength of 225 nm were determined by an automatic integration method, and the percentage of the summed peak areas of the related substances to the total area of all peaks (total amount of related substances (%)) was calculated.
# [2] = Effects of pH on stability under extreme conditions (60° C., 21-day storage); type: physicochemical; set-up: key to Color tone: +++: deep brown; ++: slightly deep brown; +: light brown; ±: very little discoloration; −: no discoloration; key to Precipitation: +: visible precipitates; −: no precipitates; conditions: 0.56 w/v % glycine, 0.22 w/v % citric acid, 0.9 w/v % NaCl; for Total amount of related substances (%): HPLC
# Description: as §1
# Aqueous solutions with the pHs shown in Table 4 below were prepared by mixing 1 w/v % of acetaminophen, 0.56 w/v % of glycine, 0.22 w/v % of citric acid, 0.9 w/v % of NaCl, and NaOH or H3PO4 (q.s.). The aqueous solutions were autoclaved at 121° C. for 20 minutes and then stored at 60° C. for 21 days. Subsequently, the aqueous solutions were visually observed in terms of the color tone (the degree of discoloration) and the presence of precipitates. In addition, the concentration of acetaminophen-related substances in each aqueous solution was determined by HPLC.
smiles,measurement,setting,value
"CC(=O)Nc1ccc(O)cc1 [acetaminophen, N-(4-hydroxyphenyl)acetamide]",Color tone,[1]; glycine 0 w/v %,+
same,Precipitation,[1]; glycine 0 w/v %,−
same,Total amount of related substances (%),[1]; glycine 0 w/v %,0.33%
same,Color tone,[1]; glycine 0.14 w/v %,−
same,Precipitation,[1]; glycine 0.14 w/v %,−
same,Total amount of related substances (%),[1]; glycine 0.14 w/v %,0.03%
same,Color tone,[1]; glycine 0.28 w/v %,−
same,Precipitation,[1]; glycine 0.28 w/v %,−
same,Total amount of related substances (%),[1]; glycine 0.28 w/v %,0.01%
same,Color tone,[1]; glycine 0.56 w/v %,−
same,Precipitation,[1]; glycine 0.56 w/v %,−
same,Total amount of related substances (%),[1]; glycine 0.56 w/v %,0%
same,Color tone,"[2]; pH 2, 1 w/v % acetaminophen",+++
same,Precipitation,"[2]; pH 2, 1 w/v % acetaminophen",+
same,Total amount of related substances (%),"[2]; pH 2, 1 w/v % acetaminophen",12.18%
same,Color tone,"[2]; pH 3, 1 w/v % acetaminophen",++
same,Precipitation,"[2]; pH 3, 1 w/v % acetaminophen",+
same,Total amount of related substances (%),"[2]; pH 3, 1 w/v % acetaminophen",5.44%
same,Color tone,"[2]; pH 4, 1 w/v % acetaminophen",±
same,Precipitation,"[2]; pH 4, 1 w/v % acetaminophen",+
same,Total amount of related substances (%),"[2]; pH 4, 1 w/v % acetaminophen",0.8%
same,Color tone,"[2]; pH 5, 1 w/v % acetaminophen",±
same,Precipitation,"[2]; pH 5, 1 w/v % acetaminophen",−
same,Total amount of related substances (%),"[2]; pH 5, 1 w/v % acetaminophen",0.05%
same,Color tone,"[2]; pH 6, 1 w/v % acetaminophen",+
same,Precipitation,"[2]; pH 6, 1 w/v % acetaminophen",−
same,Total amount of related substances (%),"[2]; pH 6, 1 w/v % acetaminophen",0.05%
same,Color tone,"[2]; pH 7, 1 w/v % acetaminophen",++
same,Precipitation,"[2]; pH 7, 1 w/v % acetaminophen",−
same,Total amount of related substances (%),"[2]; pH 7, 1 w/v % acetaminophen",0.06%
same,Color tone,"[2]; pH 8, 1 w/v % acetaminophen",+++
same,Precipitation,"[2]; pH 8, 1 w/v % acetaminophen",+
same,Total amount of related substances (%),"[2]; pH 8, 1 w/v % acetaminophen",0.07%
